From PMC8156053, “Synthesis, Characterization, and In Vitro Insulin-Mimetic Activity Evaluation of Valine Schiff Base Coordination Compounds of Oxidovanadium(V)” (Biomedicines, 2021) come the findings set out here.

Test [1] addresses T1, bovine serum albumin (BSA) (Bos taurus, UniProt P02769).
T1 construct: α-Amylase from porcine pancreas, bovine serum albumin (BSA); purchased SIGMA-Aldrich (Merck KGaA, Darmstadt, Germany)
The experiment in a line: Fluorescence quenching of serum albumin (Stern–Volmer). The note with it: highest tested concentration (2.5 × 10^−5 M), 2 × 10^−6 M BSA, PBS pH 7.4, vs free BSA and BSA with DMSO. The test is classed as binding. The method, then:
The capacity of the oxidovanadium(V) compounds to bind to bovine serum albumin (BSA) was monitored by fluorescence quenching assay. A solution of 2 × 10^−6 M BSA in PBS, pH 7.4, was incubated for 2 h at 37 b0C with each vanadium-based compound or V^IVOSO4•3H2O at increasing molar concentrations (1 × 10^−6 ÷ 2.5 × 10^−5 M) or with 0.025% DMSO (negative control). The samples were excited at 295 nm and the emission spectra of all BSA solutions were recorded in the 300 ÷ 450 nm range using a JASCO FP-750 spectrofluorometer. The final spectrum was the average of three recordings measured at a scanning speed of 250 nm/minute, with an excitation and emission bandwidth of 5 nm. […] In addition, by applying the Stern–Volmer equation [23], the mechanism by which the complexes bind to BSA was investigated as it is described in the Supplementary material.
The Stern–Volmer e quation
The Stern–Vol mer equation [1] is:
I0/I= 1+ Kqτ0[Q] = 1 + Ksv[Q], where: I0 = the fluor escence intensities of fr ee BS A solution at 347 nm, I = the fluorescence intensities of BS A solution at 347 nm in the presence of vanadium […]
[Q] = the concentration of vanadium co mplexes, τ0 = the fluorescence l ifetime of the biopolymer (10-8 s), Kq = the coll isi on quenching constant;
Ksv = the Stern-Volmer constant.
Stern–Vol mer plots of the B SA fluorescence quenching in t he prese nce of each compou nd are represented in Fig. S4, together with the ir linear best fit in which y = I0/I, x = [Q], a = slope of the li ne, […]
The fluorescence intensitie s are the average of three recordings measured at a scanning speed of 250 nm/min, with an excitation and emissio n bandwidth of 5 nm.

In another test the test system is HepG2 cells. The experiment in a line: Cytotoxicity, XTT cell viability assay. The class given is cell-based, human. The note with it: highest concentration (3 × 10^−4 M), 24 h, compared to control cells. (In general: Formazan colour is commonly taken as a measure of viable cells.)

T1 sequence (P02769 25-607): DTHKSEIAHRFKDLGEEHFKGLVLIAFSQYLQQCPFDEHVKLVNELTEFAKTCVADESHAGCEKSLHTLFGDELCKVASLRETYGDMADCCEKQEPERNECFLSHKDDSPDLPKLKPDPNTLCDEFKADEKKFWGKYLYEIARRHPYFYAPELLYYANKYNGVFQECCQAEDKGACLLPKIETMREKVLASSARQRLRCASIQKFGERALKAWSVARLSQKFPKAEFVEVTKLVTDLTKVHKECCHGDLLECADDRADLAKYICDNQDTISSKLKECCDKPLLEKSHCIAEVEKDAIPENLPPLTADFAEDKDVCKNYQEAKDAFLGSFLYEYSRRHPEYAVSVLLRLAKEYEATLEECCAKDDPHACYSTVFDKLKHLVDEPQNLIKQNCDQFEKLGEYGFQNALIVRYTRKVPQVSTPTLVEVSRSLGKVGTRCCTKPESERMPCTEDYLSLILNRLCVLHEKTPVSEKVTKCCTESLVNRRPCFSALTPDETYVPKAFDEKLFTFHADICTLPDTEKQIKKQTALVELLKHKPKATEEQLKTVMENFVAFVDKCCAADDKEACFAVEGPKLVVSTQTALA
Experimental for HepG2 cells: HepG2 cell line was purchased from American Type Culture Collection. The cells were grown in Dulbecco’s Modified Eagle’s Medium (DMEM) with 4.5‰ glucose, supplemented with 10% (v/v) fetal bovine serum, 100 units/mL penicillin, and 100 µg/mL streptomycin (complete medium). HepG2 cells were maintained at 37 °C in a 5% carbon dioxide incubator and were periodically sub-cultivated.
To determine the cytotoxic concentration of the synthesized oxidovanadium(V) complexes and V^IVOSO4•3H2O, HepG2 cells were incubated with increasing molar concentrations (1 × 10^−5 ÷ 3 × 10^−4 M) of compounds.
HepG2 cells (1.5 × 10^4 cells/mL) were seeded in complete medium on a 96-well cell culture plate and were incubated at 37 b0C, as previously described. […] Control cells were represented by cells exposed to free-complete medium and medium supplemented with 0.15% DMSO. The cytotoxicity of tested compounds on the HepG2 cell line was assessed by the 2, 3-bis-(2-methoxy-4-nitro-5-sulfophenyl)-2H-tetrazolium-5-carboxanilide) (XTT) cell viability assay. The method is based on the reduction of XTT, in the presence of phenazine methosulfate, to a water-soluble orange formazan derivative. The absorbance of the sample, due to the intensity of the orange color, which is proportional to the number of viable cells, was recorded at 450 nm using the Tecan Infinite M200Pro spectrophotometer.

With `O.O.O.O=S(=O)([O-])[O-].[O]=[V+2]` [V^IVOSO4•3H2O, reference compound], the “decrease of BSA fluorescence intensity” value in test [1] is “does not reduce the fluorescence intensity of BSA”. Moreover, the “reduction of HepG2 viability” value with HepG2 cells is recorded as 34%.
